Common to all, as to assay type: cell-based, human
Series [1] relates to c-jun. Briefly: c-jun mRNA level by q-PCR. The note with it: U87MGsiFAT1 vs U87MGsiControl. Here is the method:
(§1) Cell Culture and siRNA Transfection: The human glioma cell lines U87MG, U373, A172, T98G, GOS3 and SW1088 were obtained from ATCC; Rockville, Md., cultured in DMEM (Sigma-Aldrich, Switzerland) supplemented with 10% (v/v) FCS (Sigma-Aldrich), 3.7 g/l sodium bicarbonate (Sigma-Aldrich), Ciprofloxacin 10 μg/ml and 5% CO2 at 37° C. For transfection, 2×10^5 cells were seeded per 25 cm^2 flask. After 24 hrs, cells were transfected with FAT1 siRNA and universal medium GC control siRNA (Invitrogen) according to the manufacturer's protocol with a final concentration of 20 nM of siRNA using LIPOFECTAMINE 2000 (Invitrogen) and Opti-Mem media (Invitrogen). After 4 hrs of siRNA transfection, the media was supplemented with DMEM containing 2×FCS. The ability of each siRNA to mediate knockdown of FAT1 mRNA was confirmed using qRT-PCR. Photomicrographs of the cells were taken using an inverted phase contrast microscope (Nikon TMS, Phase contrast microscope, Japan). For simultaneous knockdown of FAT1 and PDCD4, siRNA from Dharmacon were used. Transfection was performed as earlier with 50 nM of FAT1 siRNA along with 50 nM of PDCD4 siRNA or 50 nM of control siRNA.
(§2) cDNA Synthesis and Quantitative PCR: Total RNA was isolated from cells at appropriate time point (vide supra) using TRIzol reagent (Invitrogen), quantified using a Nanodrop ND-1000 spectrophotometer. […]

In series [2] the test system is MMP3. Nature of the series: MMP3 mRNA expression by q-PCR. The note with it: U87MGsiFAT1 cells. Here is the method:
as §1, §2

In series [3] the test system is VEGF-C. Briefly: VEGF-C mRNA expression by q-PCR. The note with it: U87MGsiFAT1 cells. The protocol: as §1, §2
The test system of series [4] is IL6. Briefly: IL6 mRNA expression by q-PCR. The note with it: U87MGsiFAT1 vs siControl. Here is the method:
as §1, with “The ability of each siRNA to mediate knockdown of FAT1 mRNA was confirmed using qRT-PCR.” left out
(§3) cDNA Synthesis and Quantitative PCR: Total RNA was isolated from cells at appropriate time point (vide supra) using TRIzol reagent (Invitrogen), quantified using a Nanodrop ND-1000 spectrophotometer.

Series [5] has as its system IL1β. Briefly: IL1β mRNA expression by q-PCR. The conditions noted are these: U87MGsiFAT1 vs siControl. The protocol:
as §1, with “The ability of each siRNA to mediate knockdown of FAT1 mRNA was confirmed using qRT-PCR.” left out
as §3

Series [6] relates to AP-1 transcriptional activity. Nature of the series: AP-1 luciferase assay. The conditions noted are these: U87MGsiFAT1 vs U87siControl, p<0.01. Here is the method:
AP-1 and COX-2 Promoter Luciferase Assay: U87MG cells (40000 cells/well) were plated in 6-well plates in triplicate on day zero. On day 1, cells were transfected with siFAT1 and siControl. On day 2 cells were transiently transfected with 4×AP-1-luciferase reporter plasmids as described previously. Cells were transfected with 1 μg of AP-17× luciferase reporter plasmid, along with 50 ng of pRL-TK (Renilla luciferase) control plasmid using LIPOFECTAMINE2000 as the transfection reagent. After 48 hrs, the cells were lysed by 1× passive-lysis-buffer (Promega, Madison, Wis., USA) and assayed for luciferase activity as previously described. For COX-2 luciferase assay U87MG cells were transfected with siFAT1 and siControl on day 1 and after 4 hrs incubation were treated with 10 μM SR11302. On day2 cells were transiently transfected with COX-2 reporter plasmid and again treated with 10 μM SR11302. After 48 hrs, the cells were assayed for luciferase activity.

In series [7] the test system is PGE2. Briefly: PGE2 ELISA of conditioned medium. The conditions noted are these: U87MGsiFAT1 vs siControl, 72 hrs, p<0.01. The protocol:
PGE2 ELISA: U87MG cells (2.5×10^5 cells/flask) were plated into 25 cm^2 flask. Transfection was performed on day 1 and 72 hrs later, the conditioned medium was collected and concentrated using Centricon YM-30. The concentration of PGE2 secreted into the medium was measured with an EIA kit for human PGE2 (Cayman Chemical, Michigan, USA).
On the technique in general: An ELISA detects its analyte on a solid surface through an enzyme-linked reagent.

Series [8] concerns c-jun. Briefly: Western blot total c-jun. The conditions noted are these: U87MGsiFAT1 vs siControl. The protocol:
Western Blotting Analyses: Cells were lysed in triple detergent buffer containing protease and phosphatase inhibitors (Sigma Aldrich), lysates were quantified by BCA kit (Pierce, Thermo Fisher Scientific, Rockford, Ill. USA) and electrophoresed in 10% SDS-PAGE and electroblotted on nitrocellulose membrane (Millipore, Billerica, Mass., USA). Membrane was blocked with 5% bovine serum albumin (BSA) in 1×TBS at 4° C. for overnight. Primary and secondary antibody was diluted in 5% BSA and 0.1% tween-20 in 1×TBS. Blot was incubated in primary antibody overnight at 4° C. followed by secondary antibody incubation for 2 hrs at room temperature. Blot was developed by BCIP-NBT (Promega, Madison, Wis., USA) and captured using Alpha Imager EP software.
In general terms: A western blot detects proteins with antibodies after separation by electrophoresis.

For series [9], the system named is U87MG cells. Nature of the series: Apoptosis by caspase3 Western blot and DAPI staining. The note with it: 72 hrs of transfection.

Consider one substance from US9556437B2, “FAT1 gene in cancer and inflammation” (DEPARTMENT OF BIOTECHNOLOGY (DBT), priority 2012, dated 2017).

Entries after “also recorded” stand apart in the source; their conditions may differ.

On to “siFAT1: FAT1 specific siRNA (Invitrogen), FAT Stealth RNAi siRNA-I (HSS103567), used for further experiments (sense CCCAACACACCUGUGGUCAUGGUAA; antisense UUACCAUGACCACAGGUGUGUUGGG; Stealth modification, chemistry not fully specified; listed as Homo sapiens)”, for which, in series [1], the “c-jun mRNA level” value is “decreased by two folds; also recorded: reduced by two folds”. Further, the “decrease in MMP3 mRNA expression” value in [2] is on record as “more than 10 fold”. For the same substance, the “decrease in VEGF-C mRNA expression” value in [3] is given as “more than 10 fold”. Further, the “reduction in IL6 mRNA expression” value in series [4] is reported as around 10 fold. Moreover, the “reduction in IL1β mRNA expression” value in series [5] is recorded as around 10 fold. Moreover, the “reduction in AP-1 luciferase activity” value in series [6] was 2 fold. Also, the “reduction of PGE2 secreted into the medium” value in [7] is given as above 2 fold. Besides, in series [8], the “total c-jun protein level” value is given as “reduction”. In addition, in [9], the “DNA fragmentation (DAPI staining)” value is given as “no DNA fragmentation; also recorded: No differences” and the “cleaved caspase-3 (Western blot)” value is recorded as “no cleaved caspase-3; also recorded: No differences”.
